We go through 22 compounds from patent publication US9051310B2, “Nicotinamide derivative or salt thereof” (FUJIFILM Corporation, priority 2011, dated 2015).

Some results are limits rather than exact numbers.

For experiment [1], the target named is T1, glutathione S-transferase (GST)-linked full-length human Syk protein (Homo sapiens, UniProt P43405).
T1 construct: glutathione S-transferase (GST)-linked full-length human Syk protein; purchased Carna Biosciences; host or cells: Baculovirus expression system
Nature of the experiment: Syk enzyme assay. To be noted: 0.83 nM Syk, time-resolved fluorescence; read-out: IC50 of Syk-inhibitory activity. In kind it is biochemical. In short, it runs like this:
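Phosphotyrosine on a biotin-peptide substrate (0.5 μM) was read by time-resolved fluorescence at 615 and 665 nm with Eu-anti-pTyr antibody and APC-streptavidin after 1 h EDTA stop.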

The subject of experiment [2] is THP-1 cells (TNFα secretion on human IgG-coated plate). The experiment in a line: TNFα generation assay. The settings on record: IFN-γ differentiated THP-1 cells, 7 hours, AlphaLISA, read-out: IC50 of TNFα generation inhibitory activity. In kind it is cell-based. In short, it runs like this:
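THP-1 cells were differentiated with 10 ng/ml IFN-γ for 2 days, then preincubated with compound for 30 min at room temperature. They were then plated at 5×10^4 cells/well on plates coated with human IgG (10 μg/ml). TNFα secreted over 7 h of culture was quantified by AlphaLISA.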

With `CCn1nc(OC)c2cc(Nc3nc(N[C@H](C4CC4)[C@H](C)N)c(F)cc3C(N)=O)ccc21` [Example 2-73, 6-(((1R,2S)-2-amino-1-cyclopropylpropyl)amino)-2-((1-ethyl-3-methoxy-1H-indazol-5-yl)amino)-5-fluoronicotinamide], the IC50 is less than 10 nM in experiment [1] and 130 to 200 nM in experiment [2].

Take `CC(C)[C@@H](Nc1nc(Nc2ccc3ncccc3c2)c(C(N)=O)cc1F)[C@H](C)N` [Example 2-106, 6-(((2S,3R)-2-amino-4-methylpentan-3-yl)amino)-5-fluoro-2-(quinolin-6-ylamino)nicotinamide]: the figures for the IC50 in experiment [1] and in experiment [2] were 10 to 50 nM and 130 to 200 nM, respectively.

`COc1ccc(Nc2nc(N[C@H](C3CCC3)[C@H](C)N)c(F)cc2C(N)=O)cc1OC` [Example 2-29]: the IC50 in experiment [1] was less than 10 nM; in experiment [2] it was 65 to 130 nM.

Regarding `CC[C@@H](Nc1nc(Nc2ccc3c(c2)c(OC)nn3CCOC)c(C(N)=O)cc1F)[C@H](C)N` [Example 2-125, 6-(((2S,3R)-2-aminopentan-3-yl)amino)-5-fluoro-2-((3-methoxy-1-(2-methoxyethyl)-1H-indazol-5-yl)amino)nicotinamide], the IC50 in experiment [1] was less than 10 nM; in experiment [2], 65 to 130 nM.

For the compound `CC[C@H](N)[C@@H](C)Nc1nc(Nc2cncc(C3CC3)c2)c(C(N)=O)cc1F` [Example 2-41, 6-(((2R,3S)-3-aminopentan-2-yl)amino)-2-((5-cyclopropylpyridin-3-yl)amino)-5-fluoronicotinamide], the IC50 in experiment [1] is less than 10 nM; in experiment [2], 65 to 130 nM.

Take `CC[C@H](N)[C@H](Nc1nc(Nc2cncc(-n3cccn3)c2)c(C(N)=O)cc1F)C1CC1` [Example 2-366, 2-((5-(1H-pyrazol-1-yl)pyridin-3-yl)amino)-6-(((1R,2S)-2-amino-1-cyclopropylbutyl)amino)-5-fluoronicotinamide]: the results for the IC50 in experiment [1] and in experiment [2] were 10 to 50 nM and 130 to 200 nM, respectively.

For `CC[C@@H](Nc1nc(Nc2cc(F)c3c(c2)c(N(C)C)nn3C)c(C(N)=O)cc1F)[C@H](C)N` [Example 2-186, 6-(((2S,3R)-2-aminopentan-3-yl)amino)-2-((3-(dimethylamino)-7-fluoro-1-methyl-1H-indazol-5-yl)amino)-5-fluoronicotinamide], the IC50 in experiment [1] was less than 10 nM; in experiment [2], 65 to 130 nM.

For `Cc1nn(CC(F)F)c2ccc(Nc3nc(N[C@@H](CN)CC(C)C)c(F)cc3C(N)=O)cc12` [Example 2-137], the IC50 was less than 10 nM in experiment [1] and 65 to 130 nM in experiment [2].

Regarding `COc1ncc(Nc2nc(N[C@H](CC(C)C)[C@H](C)N)c(F)cc2C(N)=O)cc1-n1ccnn1` [Example 2-141, 6-(((2S,3R)-2-amino-5-methylhexan-3-yl)amino)-5-fluoro-2-((6-methoxy-5-(1H-1,2,3-triazol-1-yl)pyridin-3-yl)amino)nicotinamide], the IC50 in experiment [1] is 10 to 50 nM; in experiment [2], 130 to 200 nM.

Regarding `COc1nn(C)c2ccc(Nc3nc(N[C@@H](CN)CC4CC4)c(F)cc3C(N)=O)cc12` [Example 2-79, (R)-6-((1-amino-3-cyclopropylpropan-2-yl)amino)-5-fluoro-2-((3-methoxy-1-methyl-1H-indazol-5-yl)amino)nicotinamide], the figures for the IC50 in experiment [1] and in experiment [2] were less than 10 nM and 130 to 200 nM, respectively.

As for `CCCC[C@@H](Nc1nc(Nc2cncc(-n3cccn3)c2)c(C(N)=O)cc1F)[C@H](C)N` [Example 2-69, 2-((5-(1H-pyrazol-1-yl)pyridin-3-yl)amino)-6-(((2S,3R)-2-aminoheptan-3-yl)amino)-5-fluoronicotinamide], the IC50 in experiment [1] fell in the range of 10 to 50 nM; in experiment [2], 130 to 200 nM.

With `C[C@H](N)[C@H](Nc1nc(Nc2ccc3cnn(C)c3c2)c(C(N)=O)cc1F)C1CCC1` [Example 2-10, 6-(((1R,2S)-2-amino-1-cyclobutylpropyl)amino)-5-fluoro-2-((1-methyl-1H-indazol-6-yl)amino)nicotinamide], the results for the IC50 in experiment [1] and in experiment [2] were less than 10 nM and less than 65 nM, respectively.

In the case of `Cc1cnn(-c2cncc(Nc3nc(N[C@@H]4CCCC[C@@H]4N)c(F)cc3C(N)=O)c2)c1` [Example 2-472, 6-(((1R,2S)-2-aminocyclohexyl)amino)-5-fluoro-2-((5-(4-methyl-1H-pyrazol-1-yl)pyridin-3-yl)amino)nicotinamide], the IC50 in experiment [1] is less than 10 nM; in experiment [2], less than 65 nM.

With `COc1nn(C)c2ccc(Nc3nc(N[C@H](C4CCC4)[C@H](C)N)c(F)cc3C(N)=O)cc12` [Example 2-82, 6-(((1R,2S)-2-amino-1-cyclobutylpropyl)amino)-5-fluoro-2-((3-methoxy-1-methyl-1H-indazol-5-yl)amino)nicotinamide], the IC50 was less than 10 nM in experiment [1] and 130 to 200 nM in experiment [2].

Regarding `CC[C@H](N)[C@@H](C)Nc1nc(Nc2ccc3cnn(C)c3c2)c(C(N)=O)cc1F` [Example 2-39, 6-(((2R,3S)-3-aminopentan-2-yl)amino)-5-fluoro-2-((1-methyl-1H-indazol-6-yl)amino)nicotinamide], the figures for the IC50 in experiment [1] and in experiment [2] were less than 10 nM and less than 65 nM, respectively.

Consider `CCn1ncc2cc(Nc3nc(N[C@H](c4ccccn4)[C@H](C)N)c(F)cc3C(N)=O)ccc21` [Example 2-381], for which the results for the IC50 in experiment [1] and in experiment [2] were less than 10 nM and 65 to 130 nM, respectively.

Turning to `CCC[C@@H](Nc1nc(Nc2cnc(OCC)c(-n3ccnn3)c2)c(C(N)=O)cc1F)[C@H](C)N` [Example 2-207, 6-(((2S,3R)-2-aminohexan-3-yl)amino)-2-((6-ethoxy-5-(1H-1,2,3-triazol-1-yl)pyridin-3-yl)amino)-5-fluoronicotinamide], the IC50 was less than 10 nM in experiment [1] and 65 to 130 nM in experiment [2].

For the compound `COCCn1nc(OC)c2cc(Nc3nc(N[C@H](C4CC4)[C@H](C)N)c(F)cc3C(N)=O)ccc21` [Example 2-539], the IC50 in experiment [1] is less than 10 nM; in experiment [2], 130 to 200 nM.

Regarding `CC[C@H](N)[C@@H](C)Nc1nc(Nc2cccc3c2cnn3CCOC)c(C(N)=O)cc1F` [Example 2-311, 6-(((2R,3S)-3-aminopentan-2-yl)amino)-5-fluoro-2-((1-(2-methoxyethyl)-1H-indazol-4-yl)amino)nicotinamide], the IC50 is less than 10 nM in experiment [1] and 130 to 200 nM in experiment [2].

Regarding `CC[C@@H](Nc1nc(Nc2cc(Cl)c3c(cnn3C)c2)c(C(N)=O)cc1F)[C@H](C)N` [Example 2-148, 6-(((2S,3R)-2-aminopentan-3-yl)amino)-2-((7-chloro-1-methyl-1H-indazol-5-yl)amino)-5-fluoronicotinamide], the IC50 in experiment [1] is less than 10 nM; in experiment [2], 65 to 130 nM.

In the case of `COC[C@@H](Nc1nc(Nc2ccc3c(c2)c(OC(F)F)nn3C)c(C(N)=O)cc1F)[C@H](C)N` [Example 2-173, 6-(((2S,3S)-3-amino-1-methoxybutan-2-yl)amino)-2-((3-(difluoromethoxy)-1-methyl-1H-indazol-5-yl)amino)-5-fluoronicotinamide], the IC50 is less than 10 nM in experiment [1] and 65 to 130 nM in experiment [2].

Consider `COc1cccc(Nc2nc(N[C@H](C3CC3)[C@H](C)N)c(F)cc2C(N)=O)c1` [Example 2-46, 6-(((1R,2S)-2-amino-1-cyclopropylpropyl)amino)-5-fluoro-2-((3-methoxyphenyl)amino)nicotinamide], for which the IC50 in experiment [1] is less than 10 nM; in experiment [2], 65 to 130 nM.
